Data published in patent US4994476A, “Dihydropyridin-3,5-dicarboxylates incorporating aryloxypropanolamine moieties” (Bristol-Myers Company, priority 1985, dated 1991).
Structures can show the parent of a compound that is named as a salt. Where two headings read alike, the source gives them in different places.

What was measured:
rat dorsal aorta = biological target: T1, rat dorsal aorta (Rattus norvegicus, UniProt P22002); assay: Calcium blockade in rat dorsal aorta (calcium activity in smooth muscle); assay type: cell-based; conditions: for Calcium (pA2): negative logarithm of molar concentration giving dose ratio of 2; for Kb: negative logarithm of molar concentration giving dose ratio of 2, read-out: Calcium (pA2) (converted)
T1 construct: from tissue; host or cells: rat dorsal aorta (smooth muscle)
Protocol: (§1) Evaluation of these pharmacological properties was affected by means of both in vitro and in vivo biological screens. In vitro screening included calcium activity in various smooth muscle systems such as rat dorsal aorta, portal vein, and trachea; effects on blood platelets, β-binding affinities which were determined in rat heart and lung. […] The in vivo testing included vasodilating results in the ganglion-blocked, angiotensin-II supported rat and antihypertensive screening in the spontaneous hypertensive rat (SHR) or DOCA salt rats.

[1] = tested on: mean arterial blood pressure, ganglion-blocked, angiotensin-II supported rat; assay: Vasodilation in the angiotensin-supported ganglion-blocked rat; assay type: in vivo
Protocol: as §1

β-Receptor = biological target: T2, β-Receptor (Rattus norvegicus, UniProt P18090); assay: β-Receptor binding in animal heart tissue
T2 construct: from tissue; host or cells: rat heart
Protocol: as §1

[2] = Rattus norvegicus, 0.5 h, 30 minutes after dosing, read-out: Vasodilation, % reduction in mean arterial blood pressure
[3] = animal heart tissue, read-out: β Binding (IC50)

T2 sequence (P18090 whole entry): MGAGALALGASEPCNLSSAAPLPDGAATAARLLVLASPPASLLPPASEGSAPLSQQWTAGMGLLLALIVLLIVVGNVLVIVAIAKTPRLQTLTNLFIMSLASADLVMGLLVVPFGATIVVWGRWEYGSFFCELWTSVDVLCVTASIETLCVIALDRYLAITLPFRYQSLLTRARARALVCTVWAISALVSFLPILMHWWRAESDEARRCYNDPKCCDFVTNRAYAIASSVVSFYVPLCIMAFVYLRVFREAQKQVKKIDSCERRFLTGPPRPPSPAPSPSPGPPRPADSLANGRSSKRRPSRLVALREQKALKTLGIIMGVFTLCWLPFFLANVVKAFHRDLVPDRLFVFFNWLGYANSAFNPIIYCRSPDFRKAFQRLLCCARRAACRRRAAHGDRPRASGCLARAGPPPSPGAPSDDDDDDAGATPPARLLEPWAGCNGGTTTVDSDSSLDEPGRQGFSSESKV
T1 sequence (P22002 whole entry): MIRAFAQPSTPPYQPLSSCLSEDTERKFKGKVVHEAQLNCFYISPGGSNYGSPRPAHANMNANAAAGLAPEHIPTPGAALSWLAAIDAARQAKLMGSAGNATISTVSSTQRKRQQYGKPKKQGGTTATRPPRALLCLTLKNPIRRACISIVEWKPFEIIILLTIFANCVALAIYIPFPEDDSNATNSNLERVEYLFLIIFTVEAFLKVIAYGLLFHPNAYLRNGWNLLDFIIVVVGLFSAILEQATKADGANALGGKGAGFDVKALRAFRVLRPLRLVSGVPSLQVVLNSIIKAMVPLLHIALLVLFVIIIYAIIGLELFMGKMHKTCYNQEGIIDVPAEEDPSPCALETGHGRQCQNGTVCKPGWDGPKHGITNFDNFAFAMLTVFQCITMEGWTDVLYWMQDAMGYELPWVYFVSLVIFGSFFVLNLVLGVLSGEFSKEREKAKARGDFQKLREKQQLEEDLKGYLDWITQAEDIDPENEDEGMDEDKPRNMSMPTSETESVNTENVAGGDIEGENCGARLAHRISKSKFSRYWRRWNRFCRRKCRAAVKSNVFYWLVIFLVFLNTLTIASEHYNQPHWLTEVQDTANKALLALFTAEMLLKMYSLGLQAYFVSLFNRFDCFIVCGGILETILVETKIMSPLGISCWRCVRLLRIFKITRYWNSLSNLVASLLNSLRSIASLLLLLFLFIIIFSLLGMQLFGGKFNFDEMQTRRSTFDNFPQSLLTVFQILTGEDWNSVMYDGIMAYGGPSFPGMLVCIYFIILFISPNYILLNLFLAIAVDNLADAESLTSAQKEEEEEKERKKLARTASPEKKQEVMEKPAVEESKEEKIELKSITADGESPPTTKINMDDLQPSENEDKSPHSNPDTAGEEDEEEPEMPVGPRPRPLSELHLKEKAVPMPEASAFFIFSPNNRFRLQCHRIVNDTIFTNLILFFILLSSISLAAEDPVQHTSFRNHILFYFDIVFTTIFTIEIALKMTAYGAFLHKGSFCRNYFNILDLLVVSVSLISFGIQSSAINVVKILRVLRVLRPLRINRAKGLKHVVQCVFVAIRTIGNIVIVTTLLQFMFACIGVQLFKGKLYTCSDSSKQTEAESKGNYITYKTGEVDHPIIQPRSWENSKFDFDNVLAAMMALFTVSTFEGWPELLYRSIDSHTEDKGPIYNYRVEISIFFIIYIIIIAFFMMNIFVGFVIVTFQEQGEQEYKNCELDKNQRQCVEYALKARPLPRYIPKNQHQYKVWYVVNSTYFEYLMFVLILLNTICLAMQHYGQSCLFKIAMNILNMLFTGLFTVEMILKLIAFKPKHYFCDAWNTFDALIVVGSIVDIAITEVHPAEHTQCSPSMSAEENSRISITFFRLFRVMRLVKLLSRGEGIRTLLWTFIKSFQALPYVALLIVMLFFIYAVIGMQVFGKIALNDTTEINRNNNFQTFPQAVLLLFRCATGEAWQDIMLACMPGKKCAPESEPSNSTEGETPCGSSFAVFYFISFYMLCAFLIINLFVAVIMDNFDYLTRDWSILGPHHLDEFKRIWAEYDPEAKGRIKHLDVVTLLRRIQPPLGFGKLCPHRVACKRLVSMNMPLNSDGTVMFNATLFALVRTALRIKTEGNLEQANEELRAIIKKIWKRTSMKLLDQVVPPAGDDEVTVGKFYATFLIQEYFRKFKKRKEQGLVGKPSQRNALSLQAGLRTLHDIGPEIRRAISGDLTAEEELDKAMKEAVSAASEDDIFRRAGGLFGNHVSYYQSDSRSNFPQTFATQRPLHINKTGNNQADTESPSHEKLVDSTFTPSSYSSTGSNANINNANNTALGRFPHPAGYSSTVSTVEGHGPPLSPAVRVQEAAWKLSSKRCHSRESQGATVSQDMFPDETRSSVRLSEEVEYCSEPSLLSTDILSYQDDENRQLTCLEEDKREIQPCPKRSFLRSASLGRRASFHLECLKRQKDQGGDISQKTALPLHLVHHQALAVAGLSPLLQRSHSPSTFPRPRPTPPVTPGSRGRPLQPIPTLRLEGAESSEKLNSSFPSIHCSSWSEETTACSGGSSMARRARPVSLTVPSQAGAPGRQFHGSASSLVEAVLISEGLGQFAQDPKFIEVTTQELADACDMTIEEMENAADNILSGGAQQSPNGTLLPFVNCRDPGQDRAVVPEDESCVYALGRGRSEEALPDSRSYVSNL
T1 sequence (P54290 25-944 partner limits assumed): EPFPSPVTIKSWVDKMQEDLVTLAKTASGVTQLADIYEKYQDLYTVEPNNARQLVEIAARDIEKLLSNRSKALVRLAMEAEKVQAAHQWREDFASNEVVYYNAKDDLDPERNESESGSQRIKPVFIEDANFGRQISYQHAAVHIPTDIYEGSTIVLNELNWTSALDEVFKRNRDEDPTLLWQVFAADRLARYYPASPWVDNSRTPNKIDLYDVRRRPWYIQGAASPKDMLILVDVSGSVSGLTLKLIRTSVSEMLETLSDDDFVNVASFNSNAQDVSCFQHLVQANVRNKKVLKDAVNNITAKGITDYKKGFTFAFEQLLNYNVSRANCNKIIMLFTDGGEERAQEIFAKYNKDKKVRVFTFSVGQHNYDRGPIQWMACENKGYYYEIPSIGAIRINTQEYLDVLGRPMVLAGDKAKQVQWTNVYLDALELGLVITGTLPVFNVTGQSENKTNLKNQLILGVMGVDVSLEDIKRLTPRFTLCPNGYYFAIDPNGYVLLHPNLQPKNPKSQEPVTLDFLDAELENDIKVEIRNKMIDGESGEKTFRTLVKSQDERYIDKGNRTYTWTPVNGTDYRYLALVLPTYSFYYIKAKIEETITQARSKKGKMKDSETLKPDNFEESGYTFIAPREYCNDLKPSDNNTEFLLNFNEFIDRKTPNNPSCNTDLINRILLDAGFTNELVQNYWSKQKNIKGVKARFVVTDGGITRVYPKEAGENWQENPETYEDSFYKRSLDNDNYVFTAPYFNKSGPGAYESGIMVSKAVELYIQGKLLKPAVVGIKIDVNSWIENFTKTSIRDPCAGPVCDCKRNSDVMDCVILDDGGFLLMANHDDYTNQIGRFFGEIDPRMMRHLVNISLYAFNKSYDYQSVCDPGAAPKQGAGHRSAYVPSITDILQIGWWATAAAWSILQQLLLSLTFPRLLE
T1 sequence (P54290 945-1091 partner limits assumed): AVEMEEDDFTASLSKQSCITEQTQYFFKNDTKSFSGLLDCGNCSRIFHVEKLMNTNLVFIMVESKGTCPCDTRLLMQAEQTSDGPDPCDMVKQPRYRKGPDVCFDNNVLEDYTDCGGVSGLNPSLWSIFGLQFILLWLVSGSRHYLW

IC50 (β-Receptor; [3]) [nM]	Kb (rat dorsal aorta) [nM]	Structure (SMILES)	inhibition in vivo at 1 mg/kg [1, 2] [%]	also measured
–	–	COC(=O)C1=C(C)NC(C)=C(C(=O)OCCCNCC(O)COc2cccc3c2C[C@H](O)[C@H](O)C3)C1c1cccc([N+](=O)[O-])c1 (relative stereo) [Example 64]	–	Calcium (pA2) (rat dorsal aorta): 7.3
20	6.31	COC(=O)C1=C(C)NC(C)=C(C(=O)OCC(C)(C)NCC(O)COc2ccccc2C#N)C1c1cccc([N+](=O)[O-])c1 (stereo not drawn) [Example 29]	52	–
200	3.98	CCC1=C(C(=O)OCC(C)(C)NCC(O)COc2ccccc2C#N)C(c2cccc([N+](=O)[O-])c2)C(C(=O)OC)=C(C)N1 (stereo not drawn) [Example 30]	50	–
800	–	COC(=O)C1=C(C)NC(C(C)C)=C(C(=O)OCC(C)(C)NCC(O)COc2ccccc2C#N)C1c1cccc([N+](=O)[O-])c1 (stereo not drawn) [Example 31]	9	–
300	–	COC(=O)C1=C(C)NC(c2ccccc2)=C(C(=O)OCC(C)(C)NCC(O)COc2ccccc2C#N)C1c1cccc([N+](=O)[O-])c1 (stereo not drawn) [Example 32]	–	inhibition in vivo at 10 mg/kg ([1]; Rattus norvegicus, 0.5 h, 30 minutes after dosing, at 10 mg/kg, read-out: Vasodilation, % reduction in mean arterial blood pressure): 22%
70	–	COC(=O)C1=C(C)NC(c2cccs2)=C(C(=O)OCC(C)(C)NCC(O)COc2ccccc2C#N)C1c1cccc([N+](=O)[O-])c1 (stereo not drawn) [Example 33]	12	–
6000	12.6	CCC1=C(C(=O)OCCNCC(O)COc2ccccc2C#N)C(c2cccc([N+](=O)[O-])c2)C(C(=O)OC)=C(C)N1 (stereo not drawn) [Example 34]	17	–
200	–	CCC1=C(C(=O)OCCCNCC(O)COc2ccccc2C#N)C(c2cccc([N+](=O)[O-])c2)C(C(=O)OC)=C(C)N1 (stereo not drawn) [Example 35]	28	–
–	–	CCC1=C(C(=O)OCC(C)(C)NCC(O)COc2ccccc2C)C(c2cccc([N+](=O)[O-])c2)C(C(=O)OC)=C(C)N1 (stereo not drawn) [Example 37]	58	–
180	–	CCC1=C(C(=O)OCC(C)(C)NCC(O)COc2ccccc2Br)C(c2cccc([N+](=O)[O-])c2)C(C(=O)OC)=C(C)N1 (stereo not drawn) [Example 38]	55	–
400	1.58	CCC1=C(C(=O)OCC(C)(C)NCC(O)COc2ccc(CCOC)cc2)C(c2cccc([N+](=O)[O-])c2)C(C(=O)OC)=C(C)N1 (stereo not drawn) [Example 39]	54	–
–	20	CCOC(=O)C1=C(C)NC(C)=C(C(=O)OCCCNCC(O)COc2ccccc2C)C1c1cccc([N+](=O)[O-])c1 (stereo not drawn) [Example 40]	36	–
–	6.31	COC(=O)C1=C(C)NC(C)=C(C(=O)OCCCNCC(O)COc2cccc(C)c2)C1c1cccc([N+](=O)[O-])c1 (stereo not drawn) [Example 41]	28	–
–	3.98	COC(=O)C1=C(C)NC(C)=C(C(=O)OCCCNCC(O)COc2ccc(F)cc2C)C1c1cccc([N+](=O)[O-])c1 (stereo not drawn) [Example 42]	39	–
–	6.31	CCOC(=O)C1=C(C)NC(C)=C(C(=O)OCCCNCC(O)COc2ccccc2C#N)C1c1cccc([N+](=O)[O-])c1 (stereo not drawn) [Example 43]	–	–
10	10 to 15.8	COC(=O)C1=C(C)NC(C)=C(C(=O)OCCCNCC(O)COc2ccccc2C)C1c1cccc([N+](=O)[O-])c1 (stereo not drawn) [Example 44, Methyl [3-[[3-(2-Methylphenoxy)-2-hydroxypropyl]-amino]propyl]1,4-Dihydro-2,6-dimethyl-4-(3-nitrophenyl)-3,5-pyridinedicarboxylate Hydrochloride]	28	–
420	6.31	CCC1=C(C(=O)OCC(C)(C)NCC(O)COc2ccc(CC(N)=O)cc2)C(c2cccc([N+](=O)[O-])c2)C(C(=O)OC)=C(C)N1 (stereo not drawn) [Example 45, [2-[3-[4-(Aminocarbonyl)methyl]phenoxy]-2-hydroxypropyl]amino]-2,2-dimethylethyl]^3 Methyl^5 2-Ethyl-1,4-dihydro-6-methyl-4-(3-nitrophenyl)-3,5-pyridinedicarboxylate Hemihydrate]	33	–
–	251	COC(=O)C1=C(C)NC(C)=C(C(=O)OCCNC(=S)NCCNCC(O)COc2ccccc2C)C1c1cccc([N+](=O)[O-])c1 (stereo not drawn) [Example 46]	22	–
100	12.6	CCOC(=O)C1=C(C)NC(C)=C(C(=O)OCCc2ccc(OCC(O)CNC(C)C)cc2)C1c1cccc([N+](=O)[O-])c1 (stereo not drawn) [Example 54, Ethyl [2-[4-[3-[2-Hydroxy.(1-methylethyl)-amino]propoxy]phenyl]ethyl]1,4-Dihydro-2,6-dimethyl-4-(3-nitrophenyl)-3,5-pyridine dicarboxylate Hydrochloride Hydrate]	57	–
620	10	CCOC(=O)C1=C(C)NC(C)=C(C(=O)OCCCC(=O)Nc2ccc(OCC(O)CNC(C)C)cc2)C1c1cccc([N+](=O)[O-])c1 (stereo not drawn) [Example 56, Ethyl [3-[[[4-[2-Hydroxy-3-[(1-methylethyl)amino]-propoxy]phenyl]amino]carbonyl]propyl]1,4-Dihydro-2,6-dimethyl-4-(3-nitrophenyl)-3,5-pyridinedicarboxylateHydrate]	–	–
> 1000	50.1	CCC1=C(C(=O)OCC(C)(C)NC(=O)Cc2ccc(OCC(O)CNC(C)C)cc2)C(c2cccc([N+](=O)[O-])c2)C(C(=O)OC)=C(C)N1 (stereo not drawn) [Example 57, [2-[4-[2-Hydroxy-3-[(1-methylethyl)amino]propoxy]-phenyl]methyl]carbonyI]amino]-2,2-dimethylethyl]^3 Methyl^5 2-Ethyl-1,4-dihydro-6-methyl-4-(3-nitrophenyl)-3,5-pyridinedicarboxylate Hemihydrate]	11	–
–	–	COC(=O)C1=C(C)NC(C)=C(C(=O)OCCCNCC(O)COc2cccc3ccccc23)C1c1cccc([N+](=O)[O-])c1 (stereo not drawn) [Example 59]	–	Calcium (pA2) (rat dorsal aorta): 7.3
–	–	COC(=O)C1=C(C)NC(C)=C(C(=O)OCCCNCC(O)COc2ccccc2C(F)(F)F)C1c1cccc([N+](=O)[O-])c1 (stereo not drawn) [Example 60]	–	Calcium (pA2) (rat dorsal aorta): 7.2
–	–	COC(=O)C1=C(C)NC(C)=C(C(=O)OCCCNCC(O)COc2ccccc2C2CCCCC2)C1c1cccc([N+](=O)[O-])c1 (stereo not drawn) [Example 61]	–	Calcium (pA2) (rat dorsal aorta): 7.6
–	–	C=CCc1ccccc1OCC(O)CNCCCOC(=O)C1=C(C)NC(C)=C(C(=O)OC)C1c1cccc([N+](=O)[O-])c1 (stereo not drawn) [Example 62]	–	Calcium (pA2) (rat dorsal aorta): 7.4
–	–	COC(=O)C1=C(C)NC(C)=C(C(=O)OCCCNCC(O)COc2cccc3c2CCCC3=O)C1c1cccc([N+](=O)[O-])c1 (stereo not drawn) [Example 63]	–	Calcium (pA2) (rat dorsal aorta): 8.8
–	–	COC(=O)C1=C(C)NC(C)=C(C(=O)OC)C1c1ccccc1[N+](=O)[O-] [Nifedipine, reference compound]	–	inhibition in vivo at 0.1 mg/kg ([1]; Rattus norvegicus, 0.5 h, 30 minutes after dosing, at 0.1 mg/kg, read-out: Vasodilation, % reduction in mean arterial blood pressure): 23%; IC50 (β-Receptor): > 1000 nM
1000	–	CC(=O)Nc1ccc(OCC(O)CNC(C)C)cc1 (stereo not drawn) [Practolol, reference compound]	–	–

Structure (SMILES)	IC50 (β-Receptor; [3]) [nM]	Kb (rat dorsal aorta) [nM]	inhibition in vivo at 1 mg/kg [1, 2] [%]	also measured
CCOC(=O)C1=C(C)NC(C)=C(C(=O)OCCc2ccc(OCC(O)CNC(C)(C)C)cc2)C1c1cccc([N+](=O)[O-])c1 (stereo not drawn) [Example 55, Ethyl [2-[4-[3-[(1,1-dimethylethyl)amino]-2-hydroxypropoxy]phenyl]ethyl]1,4-Dihydro-2,6-dimethyl-4-(3-nitrophenyl)-3,5-pyridinedicarboxylate Hydrochloride Hemihydrate]	–	12.6	–	Lethality in vasodilation test ([1]; 1.0 mg/kg): Lethal at 1.0 mg/kg
